In PMC4997316, “A ruthenium polypyridyl intercalator stalls DNA replication forks, radiosensitizes human cancer cells and is enhanced by Chk1 inhibition” (Scientific Reports, 2016):

Legend:
HeLa cells [1] = test: Trypan Blue exclusion assay; assay type: cell-based, human; conditions: 40 μM
Experimental: HeLa cells were seeded in 6 well plates at 100,000 cells/well and allowed to proliferate for 24 h. Cell cultures were treated as stated, media containing detached/dead cells were removed and retained, adherent cells washed with PBS and detached with Trypsin. Adherent and detached cells for each sample were combined, concentrated via centrifugation and re-suspended in 0.5 ml PBS containing 0.04% Trypan Blue solution. Trypan Blue-negative and Trypan Blue-positive cells were counted by haemocytometer. A minimum of 200 cells were counted for each sample.

[2] = test system: HeLa cervical cancer cells; test: cell viability with or without Chk1 inhibitor CHIR-124, HeLa; assay type: cell-based, human; conditions: plus CHIR-124 500 nM, 48 h constant exposure
Experimental: (§1) With this in mind, and considering the strong Chk1 activation in response to 1, HeLa cervical cancer cells, which are […][44], were exposed to a combination of 1 plus the Chk1 inhibitor CHIR-124[45] and the impact of co-treatment upon cell viability determined. A non-cytotoxic dose of 500 nM CHIR-124 was used and results were compared to single-agent treatment. […] Minimal enhancement of the anti-proliferative effect of 2 by CHIR-124 was observed (Fig. S15b), in agreement with 2 operating via a Chk1-independent mechanism.
(§2) Figure 5 Concurrent treatment of [Ru(dppz)2(PIP)]^2+ plus the Chk1 inhibitor CHIR-124 potentiates synergistic apoptosis in cancer cells. (a) Viability of HeLa (cervical cancer) or hSAEC1-KT (normal epithelial) cells after incubation with 1 in the absence or presence of Chk1 inhibitor CHIR-124 (500 nM) for 48 h constant exposure. […] (c) Quantification of apoptotic cells for experimental conditions as shown in (b). […] (f) Quantification of γH2AX foci from cells treated as in (e). […] Minimum of 150 cells counted per experiment. […]
(§3) Cells were seeded in 96 well plates at 20,000 cells/well, allowed to proliferate for 24 h before treatment as described in the main text. […] The absorbance at 540 nm was quantified by plate reader (reference wavelength 650 nm). The metabolic activity of the cell population was determined as a percentage of a negative (solvent) control.

[3] = test system: hSAEC1-KT human epithelial cells; test: cell viability with or without Chk1 inhibitor CHIR-124, hSAEC1-KT; assay type: cell-based; conditions: normal hSAEC1-KT cells, plus CHIR-124 500 nM, 48 h, any concentration of 1
Experimental: as §1, §2, §3

HeLa cells [4] = test: quantification of apoptotic morphology (pyknosis/karyorrhexis); assay type: cell-based, human; conditions: single-agent treatment, 48 h (1 40 μM; CHIR-124 500 nM)
Experimental: as §1
Figure 5 Concurrent treatment of [Ru(dppz)2(PIP)]^2+ plus the Chk1 inhibitor CHIR-124 potentiates synergistic apoptosis in cancer cells. (a) Viability of HeLa (cervical cancer) or hSAEC1-KT (normal epithelial) cells after incubation with 1 in the absence or presence of Chk1 inhibitor CHIR-124 (500 nM) for 48 h constant exposure. (b) Morphological evidence for apoptosis (pyknosis/karyorrhexis, arrows) in HeLa cells treated with 40 μM 1 plus CHIR-124 for 48 h. Scale bars = 20 μm. (c) Quantification of apoptotic cells for experimental conditions as shown in (b). Equivalent results for 2 (40 μM, 48 h) included. Data mean of two independent experiments +/− SD. […] (f) Quantification of γH2AX foci from cells treated as in (e). […] Minimum of 150 cells counted per experiment. […]

SMILES: [Ru+2].c1ccc(-c2nc3c4cccnc4c4ncccc4c3[nH]2)cc1.c1ccc2nc3c4cccnc4c4ncccc4c3nc2c1.c1ccc2nc3c4cccnc4c4ncccc4c3nc2c1 [Complex 1, [Ru(dppz)2(PIP)]^2+]
- HeLa cell growth (viable cell numbers) (HeLa cells [1]; 24–72 h treatment): completely halts HeLa cell growth
- cytotoxicity (HeLa cells [1]; HeLa, up to 72 h, % total cells, read-out: non-viable (Trypan Blue positive) populations): < 20%
- cell viability on simultaneous treatment with CHIR-124 compared to either agent alone [2]: significant decrease in cell viability
- impact on cell health on combination with CHIR-124 [3]: no substantial impact on cell health
- morphological evidence of apoptosis (pyknosis/karyorrhexis) (HeLa cells [4]): < 5%
